Reference: PubChem BioAssay AID1259407 (Chemical Carcinogenesis Research Information System (CCRIS), 2018)
The source made the active and inactive calls. How the calls were made is not given here.

System: CCRIS mutagenicity, Ames/micronucleus/aberration tests
Test: CCRIS mutagenicity studies
[1] = Test System: AMES SALMONELLA TYPHIMURIUM, Strain/Indicator: TA98, Metabolic Activation: NONE, Method: PREINCUBATION
[2] = Test System: AMES SALMONELLA TYPHIMURIUM, Strain/Indicator: TA100, Metabolic Activation: NONE, Method: PREINCUBATION
[3] = Test System: AMES SALMONELLA TYPHIMURIUM, Strain/Indicator: TA1535, Metabolic Activation: NONE, Method: PREINCUBATION
[4] = Test System: AMES SALMONELLA TYPHIMURIUM, Strain/Indicator: TA1537, Metabolic Activation: NONE, Method: PREINCUBATION
[5] = Test System: E. COLI, Strain/Indicator: WP2 UVRA, Metabolic Activation: NONE, Method: PREINCUBATION

## Nc1ncnc2c1nc(-c1ccc([N+](=O)[O-])cc1)n2-c1ccc([N+](=O)[O-])cc1
Test System: AMES SALMONELLA TYPHIMURIUM, Strain/Indicator: TA98(1,8-DNP), Metabolic Activation: NONE, Method: PREINCUBATION
  mutagenic call: active; positive
Test System: AMES SALMONELLA TYPHIMURIUM, Strain/Indicator: TA98(1,8-DNP), Metabolic Activation: RAT, LIVER, S-9, PCB, Method: PREINCUBATION
  mutagenic call: active; positive
Test System: AMES SALMONELLA TYPHIMURIUM, Strain/Indicator: TA98(NR), Metabolic Activation: NONE, Method: PREINCUBATION
  mutagenic call: active; positive
Test System: AMES SALMONELLA TYPHIMURIUM, Strain/Indicator: TA98(NR), Metabolic Activation: RAT, LIVER, S-9, PCB, Method: PREINCUBATION
  mutagenic call: active; positive
[1]
  mutagenic call: active; positive
Test System: AMES SALMONELLA TYPHIMURIUM, Strain/Indicator: TA98, Metabolic Activation: RAT, LIVER, S-9, PCB, Method: PREINCUBATION
  mutagenic call: active; positive
Test System: AMES SALMONELLA TYPHIMURIUM, Strain/Indicator: TA100(1,8-DNP), Metabolic Activation: NONE, Method: PREINCUBATION
  mutagenic call: inactive; negative
Test System: AMES SALMONELLA TYPHIMURIUM, Strain/Indicator: TA100(1,8-DNP), Metabolic Activation: RAT, LIVER, S-9, PCB, Method: PREINCUBATION
  mutagenic call: inactive; negative
Test System: AMES SALMONELLA TYPHIMURIUM, Strain/Indicator: TA100(NR), Metabolic Activation: NONE, Method: PREINCUBATION
  mutagenic call: inactive; negative
Test System: AMES SALMONELLA TYPHIMURIUM, Strain/Indicator: TA100(NR), Metabolic Activation: RAT, LIVER, S-9, PCB, Method: PREINCUBATION
  mutagenic call: inactive; negative
[2]
  mutagenic call: active; positive
Test System: AMES SALMONELLA TYPHIMURIUM, Strain/Indicator: TA100, Metabolic Activation: RAT, LIVER, S-9, PCB, Method: PREINCUBATION
  mutagenic call: active; positive
Test System: AMES SALMONELLA TYPHIMURIUM, Strain/Indicator: YG1020, Metabolic Activation: NONE, Method: PREINCUBATION
  mutagenic call: active; positive
Test System: AMES SALMONELLA TYPHIMURIUM, Strain/Indicator: YG1020, Metabolic Activation: RAT, LIVER, S-9, PCB, Method: PREINCUBATION
  mutagenic call: active; positive
Test System: AMES SALMONELLA TYPHIMURIUM, Strain/Indicator: YG1021, Metabolic Activation: NONE, Method: PREINCUBATION
  mutagenic call: active; positive
Test System: AMES SALMONELLA TYPHIMURIUM, Strain/Indicator: YG1021, Metabolic Activation: RAT, LIVER, S-9, PCB, Method: PREINCUBATION
  mutagenic call: active; positive
Test System: AMES SALMONELLA TYPHIMURIUM, Strain/Indicator: YG1024, Metabolic Activation: NONE, Method: PREINCUBATION
  mutagenic call: active; positive
Test System: AMES SALMONELLA TYPHIMURIUM, Strain/Indicator: YG1024, Metabolic Activation: RAT, LIVER, S-9, PCB, Method: PREINCUBATION
  mutagenic call: active; positive
Test System: AMES SALMONELLA TYPHIMURIUM, Strain/Indicator: YG1025, Metabolic Activation: NONE, Method: PREINCUBATION
  mutagenic call: active; positive
Test System: AMES SALMONELLA TYPHIMURIUM, Strain/Indicator: YG1025, Metabolic Activation: RAT, LIVER, S-9, PCB, Method: PREINCUBATION
  mutagenic call: active; positive
Test System: AMES SALMONELLA TYPHIMURIUM, Strain/Indicator: YG1026, Metabolic Activation: NONE, Method: PREINCUBATION
  mutagenic call: active; positive
Test System: AMES SALMONELLA TYPHIMURIUM, Strain/Indicator: YG1026, Metabolic Activation: RAT, LIVER, S-9, PCB, Method: PREINCUBATION
  mutagenic call: active; positive
Test System: AMES SALMONELLA TYPHIMURIUM, Strain/Indicator: YG1029, Metabolic Activation: NONE, Method: PREINCUBATION
  mutagenic call: active; positive
Test System: AMES SALMONELLA TYPHIMURIUM, Strain/Indicator: YG1029, Metabolic Activation: RAT, LIVER, S-9, PCB, Method: PREINCUBATION
  mutagenic call: active; positive

## C/C=C/Cl
Test System: AMES SALMONELLA TYPHIMURIUM, Strain/Indicator: TA100, Metabolic Activation: NONE, Method: DESICCATOR
  mutagenic call: active; positive
Test System: AMES SALMONELLA TYPHIMURIUM, Strain/Indicator: TA100, Metabolic Activation: RAT, LIVER, S-9, PCB OR PHENOBARBITAL, Method: DESICCATOR
  mutagenic call: active; positive

## CCOC(=O)C(=NNc1ccc(-c2ccc(NN=C(C(=O)OCC)C(=O)OCC)c(OC)c2)cc1OC)C(=O)OCC
Test System: AMES SALMONELLA TYPHIMURIUM, Strain/Indicator: TA98, Metabolic Activation: HAMSTER, LIVER, S-9, Method: PREINCUBATION (PRIVAL METHOD)
  mutagenic call: inactive; negative

## Cc1ccc2c([N+](=O)[O-])cccc2c1
[1]
  mutagenic call: active; positive

## C[C@H]1SC[C@@H](C(=O)N[C@@H](Cc2cnc[nH]2)C(=O)N2CCC[C@H]2C(N)=O)NC1=O
[1]
  mutagenic call: inactive; negative
Test System: AMES SALMONELLA TYPHIMURIUM, Strain/Indicator: TA98, Metabolic Activation: RAT, LIVER, S-9, AROCLOR 1254, Method: PREINCUBATION
  mutagenic call: inactive; negative
[2]
  mutagenic call: inactive; negative
Test System: AMES SALMONELLA TYPHIMURIUM, Strain/Indicator: TA100, Metabolic Activation: RAT, LIVER, S-9, AROCLOR 1254, Method: PREINCUBATION
  mutagenic call: inactive; negative
[3]
  mutagenic call: inactive; negative
Test System: AMES SALMONELLA TYPHIMURIUM, Strain/Indicator: TA1535, Metabolic Activation: RAT, LIVER, S-9, AROCLOR 1254, Method: PREINCUBATION
  mutagenic call: inactive; negative
[4]
  mutagenic call: inactive; negative
Test System: AMES SALMONELLA TYPHIMURIUM, Strain/Indicator: TA1537, Metabolic Activation: RAT, LIVER, S-9, AROCLOR 1254, Method: PREINCUBATION
  mutagenic call: inactive; negative
[5]
  mutagenic call: inactive; negative
Test System: E. COLI, Strain/Indicator: WP2 UVRA, Metabolic Activation: RAT, LIVER, S-9, AROCLOR 1254, Method: PREINCUBATION
  mutagenic call: inactive; negative

## CCCOC(C(=O)OC1CCN(C)CC1)(c1ccccc1)c1ccccc1
[1]
  mutagenic call: inactive; negative
Test System: AMES SALMONELLA TYPHIMURIUM, Strain/Indicator: TA98, Metabolic Activation: RAT, LIVER, S-9, PHENOBARBITAL AND 5,6-BENZOFLAVONE, Method: PREINCUBATION
  mutagenic call: inactive; negative
[2]
  mutagenic call: inactive; negative
Test System: AMES SALMONELLA TYPHIMURIUM, Strain/Indicator: TA100, Metabolic Activation: RAT, LIVER, S-9, PHENOBARBITAL AND 5,6-BENZOFLAVONE, Method: PREINCUBATION
  mutagenic call: inactive; negative
[3]
  mutagenic call: inactive; negative
Test System: AMES SALMONELLA TYPHIMURIUM, Strain/Indicator: TA1535, Metabolic Activation: RAT, LIVER, S-9, PHENOBARBITAL AND 5,6-BENZOFLAVONE, Method: PREINCUBATION
  mutagenic call: inactive; negative
[4]
  mutagenic call: inactive; negative
Test System: AMES SALMONELLA TYPHIMURIUM, Strain/Indicator: TA1537, Metabolic Activation: RAT, LIVER, S-9, PHENOBARBITAL AND 5,6-BENZOFLAVONE, Method: PREINCUBATION
  mutagenic call: inactive; negative
[5]
  mutagenic call: inactive; negative
Test System: E. COLI, Strain/Indicator: WP2 UVRA, Metabolic Activation: RAT, LIVER, S-9, PHENOBARBITAL AND 5,6-BENZOFLAVONE, Method: PREINCUBATION
  mutagenic call: inactive; negative

## N#[N+]c1ccc([O-])cc1
[1]
  mutagenic call: active; positive
Test System: AMES SALMONELLA TYPHIMURIUM, Strain/Indicator: TA98, Metabolic Activation: RAT, LIVER, S-9, POLYCHLORINATED BIPHENYLS, Method: PREINCUBATION
  mutagenic call: active; positive
[2]
  mutagenic call: active; positive
Test System: AMES SALMONELLA TYPHIMURIUM, Strain/Indicator: TA100, Metabolic Activation: RAT, LIVER, S-9, POLYCHLORINATED BIPHENYLS, Method: PREINCUBATION
  mutagenic call: active; positive
